Columns and labels:
Format in all cases: in vivo
[1] = test system: rice (Oryza sativa); assay: Test D flooded paddy test, visual plant response rating; details: 250 g ai/ha, scale 0 to 100 (0 no effect, 100 complete control), 13 to 15 d
Outline: (§1)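 Plants were grown to the 2-leaf stage, pots flooded to 3 cm above soil, and compound applied directly into the paddy water, with the depth held throughout. After 13 to 15 d in a greenhouse, response was rated visually against untreated controls on a 0–100 scale (0 no effect, 100 complete control).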

[2] = test system: barnyardgrass (Echinochloa crus-galli); assay: as above; details: 250 g ai/ha, scale 0 to 100 (0 no effect, 100 complete control), 13 to 15 d
Outline: as §1

[3] = test system: duck salad (Heteranthera limosa); assay: as above; details: 250 g ai/ha, scale 0 to 100 (0 no effect, 100 complete control), 13 to 15 d
Outline: as §1

[4] = test system: sedge umbrella (small-flower umbrella sedge, Cyperus difformis); assay: as above; details: 250 g ai/ha, scale 0 to 100 (0 no effect, 100 complete control), 13 to 15 d
Outline: as §1

[5] = test system: barnyardgrass (Echinochloa crus-galli); assay: Test C preemergence, visual plant response rating; details: Test C, 0 is no effect, 100 is complete control
Outline: (§2)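 Compounds in a non-phytotoxic solvent with surfactant were applied as a directed soil spray preemergence or to 2–10 cm, one- to two-leaf plants postemergence, in loam–sand soil. After about 10 d in a greenhouse, injury was visually rated against untreated controls on a 0–100 scale (100 = complete control).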

[6] = test system: Italian ryegrass (Lolium mutiflorum); assay: Test C preemergence, visual plant response rating; details: Test C, 0 is no effect, 100 is complete control
Outline: as §2

[7] = test system: foxtail, giant (giant foxtail, Setaria faberi); assay: Test C preemergence, visual plant response rating; details: Test C, 0 is no effect, 100 is complete control
Outline: as §2

[8] = test system: ragweed (common ragweed, Ambrosia artemisiifolia); assay: Test C preemergence, visual plant response rating; details: Test C, 0 is no effect, 100 is complete control
Outline: as §2

[9] = test system: kochia (Bassia scoparia); assay: Test C preemergence, visual plant response rating; details: Test C, 0 is no effect, 100 is complete control
Outline: as §2

[10] = test system: pigweed (Amaranthus retroflexus); assay: Test C preemergence, visual plant response rating; details: Test C, 0 is no effect, 100 is complete control
Outline: as §2

[11] = test system: barnyardgrass (Echinochloa crus-galli); assay: Test C postemergence, visual plant response rating
Outline: as §2

[12] = test system: corn (Zea mays); assay: Test C postemergence, visual plant response rating
Outline: as §2

[13] = test system: Italian ryegrass (Lolium mutiflorum); assay: Test C postemergence, visual plant response rating
Outline: as §2

[14] = test system: galium (catchweed bedstraw, Galium aparine); assay: Test C postemergence, visual plant response rating
Outline: as §2

[15] = test system: foxtail, giant (giant foxtail, Setaria faberi); assay: Test C postemergence, visual plant response rating
Outline: as §2

[16] = test system: blackgrass (Alopecurus myosuroides); assay: Test C postemergence, visual plant response rating
Outline: as §2

[17] = test system: wheat (Triticum aestivum); assay: Test C postemergence, visual plant response rating
Outline: as §2

[18] = test system: ragweed (common ragweed, Ambrosia artemisiifolia); assay: Test C postemergence, visual plant response rating
Outline: as §2

[19] = test system: kochia (Bassia scoparia); assay: Test C postemergence, visual plant response rating
Outline: as §2

[20] = test system: pigweed (Amaranthus retroflexus); assay: Test C postemergence, visual plant response rating
Outline: as §2

[21] = Test C, postemergence, 125 g ai/ha

Row | Structure (SMILES) | Plant response rating, Rice (Flood) [1] | Plant response rating, Barnyardgrass (Flood) [2] | Plant response rating, Ducksalad (Flood) [3] | Plant response rating, Sedge, Umbrella (Flood) [4] | Barnyardgrass plant response rating (0 to 100 scale) ([5]; 31 g ai/ha) | Barnyardgrass plant response rating (0 to 100 scale) ([5]; 125 g ai/ha) | Ryegrass, Italian plant response rating (0 to 100 scale) ([6]; 31 g ai/ha) | Ryegrass, Italian plant response rating (0 to 100 scale) ([6]; 125 g ai/ha) | Foxtail, Giant plant response rating (0 to 100 scale) ([7]; 31 g ai/ha) | Foxtail, Giant plant response rating (0 to 100 scale) ([7]; 125 g ai/ha) | Ragweed plant response rating (0 to 100 scale) ([8]; 31 g ai/ha) | Ragweed plant response rating (0 to 100 scale) ([8]; 125 g ai/ha) | Kochia plant response rating (0 to 100 scale) ([9]; 31 g ai/ha) | Kochia plant response rating (0 to 100 scale) ([9]; 125 g ai/ha) | Pigweed plant response rating (0 to 100 scale) ([10]; 31 g ai/ha) | Pigweed plant response rating (0 to 100 scale) ([10]; 125 g ai/ha) | Barnyardgrass plant response rating (0 to 100 scale) ([11]; Postemergence, 31 g ai/ha) | Barnyardgrass plant response rating (0 to 100 scale) [11, 21] | Corn plant response rating (0 to 100 scale) ([12]; Postemergence, 31 g ai/ha) | Corn plant response rating (0 to 100 scale) [12, 21] | also measured
1 | C#CCO/N=C(/c1cc(Cl)cc(Br)c1)c1c(O)c(C)nn(C)c1=O [Compound 291] | 0 | 0 | 25 | 45 | 0 | 100 | 10 | 100 | 50 | 100 | 60 | 100 | 0 | 90 | 10 | 80 | 20 | 70 | 20 | 30 | Ryegrass, Italian plant response rating (0 to 100 scale) ([13]; Postemergence, 31 g ai/ha): 90; Ryegrass, Italian plant response rating (0 to 100 scale) [13, 21]: 100; Galium plant response rating (0 to 100 scale) ([14]; Postemergence, 31 g ai/ha): 100; Galium plant response rating (0 to 100 scale) [14, 21]: 100; Foxtail, Giant plant response rating (0 to 100 scale) ([15]; Postemergence, 31 g ai/ha): 40; Foxtail, Giant plant response rating (0 to 100 scale) [15, 21]: 80; Blackgrass plant response rating (0 to 100 scale) ([16]; Postemergence, 31 g ai/ha): 0; Blackgrass plant response rating (0 to 100 scale) [16, 21]: 70; Wheat plant response rating (0 to 100 scale) ([17]; Postemergence, 31 g ai/ha): 30; Wheat plant response rating (0 to 100 scale) [17, 21]: 90; Ragweed plant response rating (0 to 100 scale) ([18]; Postemergence, 31 g ai/ha): 100; Ragweed plant response rating (0 to 100 scale) [18, 21]: 100; Kochia plant response rating (0 to 100 scale) ([19]; Postemergence, 31 g ai/ha): 50; Kochia plant response rating (0 to 100 scale) [19, 21]: 100; Pigweed plant response rating (0 to 100 scale) ([20]; Postemergence, 31 g ai/ha): 30; Pigweed plant response rating (0 to 100 scale) [20, 21]: 60
2 | C=CCO/N=C(\c1c(O)c(C)nn(C)c1=O)c1cccc2cc(Cl)ccc12 [Compound 243] | 45 | 40 | 80 | 100 | 20 | 80 | 0 | 20 | 80 | 100 | 30 | 80 | 0 | 0 | 70 | 100 | 70 | 80 | 0 | 30 | Ryegrass, Italian plant response rating (0 to 100 scale) ([13]; Postemergence, 31 g ai/ha): 10; Ryegrass, Italian plant response rating (0 to 100 scale) [13, 21]: 40; Galium plant response rating (0 to 100 scale) ([14]; Postemergence, 31 g ai/ha): 80; Galium plant response rating (0 to 100 scale) [14, 21]: 90; Foxtail, Giant plant response rating (0 to 100 scale) ([15]; Postemergence, 31 g ai/ha): 70; Foxtail, Giant plant response rating (0 to 100 scale) [15, 21]: 80; Blackgrass plant response rating (0 to 100 scale) ([16]; Postemergence, 31 g ai/ha): 30; Blackgrass plant response rating (0 to 100 scale) [16, 21]: 50; Wheat plant response rating (0 to 100 scale) ([17]; Postemergence, 31 g ai/ha): 0; Wheat plant response rating (0 to 100 scale) [17, 21]: 0; Ragweed plant response rating (0 to 100 scale) ([18]; Postemergence, 31 g ai/ha): 60; Ragweed plant response rating (0 to 100 scale) [18, 21]: 90; Kochia plant response rating (0 to 100 scale) ([19]; Postemergence, 31 g ai/ha): 20; Kochia plant response rating (0 to 100 scale) [19, 21]: 20; Pigweed plant response rating (0 to 100 scale) ([20]; Postemergence, 31 g ai/ha): 80; Pigweed plant response rating (0 to 100 scale) [20, 21]: 90
3 | CO/N=C(/c1cccc(/C=C/Cl)c1)c1c(O)c(C)nn(C)c1=O [Compound 285] | 0 | 0 | 0 | 0 | 0 | 0 | 0 | 10 | 0 | 0 | 0 | 10 | 0 | 0 | 0 | 0 | 20 | 30 | 0 | 0 | Ryegrass, Italian plant response rating (0 to 100 scale) ([13]; Postemergence, 31 g ai/ha): 0; Ryegrass, Italian plant response rating (0 to 100 scale) [13, 21]: 0; Galium plant response rating (0 to 100 scale) ([14]; Postemergence, 31 g ai/ha): 50; Galium plant response rating (0 to 100 scale) [14, 21]: 60; Foxtail, Giant plant response rating (0 to 100 scale) ([15]; Postemergence, 31 g ai/ha): 10; Foxtail, Giant plant response rating (0 to 100 scale) [15, 21]: 20; Blackgrass plant response rating (0 to 100 scale) ([16]; Postemergence, 31 g ai/ha): 0; Blackgrass plant response rating (0 to 100 scale) [16, 21]: 10; Wheat plant response rating (0 to 100 scale) ([17]; Postemergence, 31 g ai/ha): 0; Wheat plant response rating (0 to 100 scale) [17, 21]: 0; Ragweed plant response rating (0 to 100 scale) ([18]; Postemergence, 31 g ai/ha): 30; Ragweed plant response rating (0 to 100 scale) [18, 21]: 60; Kochia plant response rating (0 to 100 scale) ([19]; Postemergence, 31 g ai/ha): 10; Kochia plant response rating (0 to 100 scale) [19, 21]: 20; Pigweed plant response rating (0 to 100 scale) ([20]; Postemergence, 31 g ai/ha): 0; Pigweed plant response rating (0 to 100 scale) [20, 21]: 70

— patent US20210045385A1, “PYRIDAZINONE-SUBSTITUTED KETOXIMES AS HERBICIDES” (FMC Corporation, priority 2018, published 2021)
